Key:
Aiolos at UHRF1 promoter = assay: ChIP-qPCR of Aiolos occupancy at UHRF1 gene; format: cell-based; conditions: H929 cells, 1 μM POM, 24 hr
Method: FIG. 2A-2E. UHRF1 expression is positively regulated by Ikaros and Aiolos in IMiDs sensitive MM cells. (2A) Western blot analysis protein expression of UHRF1, Ikaros, Aiolos, ZFP91 and Cereblon expression in control [shLuciferase (shLuc)] and cereblon knockdown (shCRBN) H929 cells treated with DMSO and 1 μM POM for 3 days. GAPDH, loading control. Arrow head, UHRF1. (2B) qRT-PCR analysis of UHRF1 gene expression levels in cells as in (2A). Data was normalized to ACTB. Error bars represent the SEM of technical duplicates. *** P<0.001 (Two-tailed unpaired Student's t-test). […]
ChIP-qPCR was performed using ChIP-IT Express Enzymatic kit (Active Motif) according to the manufacture manual with some modifications. […] DNA was purified using a PCR purification kit (Qiagen) and analyzed by qPCR using the Power SYBR Green PCR Master Mix.
Procedures afterward were performed according to the manufacture manual. Eluted DNA was purified using a PCR purification kit (Qiagen) and analyzed by quantitative real-time PCR on the Viia 7 Real Time PCR System using the Power SYBR Green PCR master mix (Applied Biosystems). Statistical differences were calculated using a […] unpaired Student's t-test.

H3 and H3K27ac = assay: Western blot of global histone H3 and H3K27ac levels; format: cell-based; conditions: H929 and MM1.S cells, 1 μM POM, 24 hr
Method: FIG. 7A-7B. UHRF1 expression is positively regulated by Ikaros, Aiolos and ZFP91 in MM1.S cells. (7A) Western blot analysis protein expression of UHRF1, Ikaro and Aiolos in stably transduced MM1.S cells after Dox induction (0, 20, or 50 ng/ml) for 3 days of non-target shRNA (shNT) or shRNAs targeting Ikaros (shIKZF1) or Aiolos (shIKZF3). (7B) Western blot analysis histone H3 and H3K27ac levels from H929 and MM1.S cells treated with DMSO or 1 μM POM for 24 hr.
Cells were lysed with cell lysis buffer (50 mM TrisHCl pH7.4, 250 mM NaCl, 0.5% Triton X100, 10% glycerol) supplemented with protease inhibitor cocktail. Cell lysates were subjected to sonication to breakdown nuclei and reduce viscosity caused by released genomic DNA. The protein concentration was measured by a Bradford Protein Assay (Bio-Rad). Samples were mixed with SDS sample buffer at 95° C. for 5 minutes. Whole cell lysates were resolved on NuPAGE™ 4-12% Bis-Tris Midi Protein Gels (Invitrogen) and transferred onto nitrocellulose membranes, which were then subjected to blocking in Intercept (TBS) Blocking Buffer (LI-COR). Proteins of interested were detected incubation with primary antibodies listed below at 4° C. overnight. Then the membrane was incubated with either IRDye 680RD goat anti-Mouse IgG (H+L) or IRDye 800CW goat anti-Rabbit IgG (H+L) (1:10,000; LI-COR). Bends were visualized by Odyssey Imaging System (LI-COR).

## Nc1cccc2c1C(=O)N(C1CCC(=O)NC1=O)C2=O (centres unmarked) [POM, pomalidomide]
Aiolos at UHRF1 promoter
  UHRF1 promoter occupancy of Aiolos: drastically reduced
H3 and H3K27ac
  global levels of H3 and H3K27ac: not affected

— US20260234630A1, “Methods for Treating Multiple Myeloma” (Celgene Corporation, priority 2022, published 2026)
